Data on 23 compounds can be found in PubChem BioAssay (NCI).

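Interpolation was linear, between the two tested concentrations surrounding the appropriate level; five concentrations were tested over 48 hours in 96-well plates. The concentration for full growth arrest is given as TGI.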

What all share (test): inhibition of tumour cell growth, NCI panel, 48 h
Experiment [1] deals with HT29 colon.
The subject of experiment [2] is DMS 114 small cell lung.
Experiment [3] concerns KM20L2 colon.
The subject of experiment [4] is HOP-18 NSCLC.
Experiment [5] relates to ACHN renal.
Experiment [6] relates to DLD-1 colon.
Experiment [7] concerns M19-MEL melanoma.
Experiment [8] deals with K-562 leukemia.
The subject of experiment [9] is LXFL 529 NSCLC.
Experiment [10] concerns DMS 273 small cell lung.
Experiment [11] concerns SNB-78 CNS.
Experiment [12] relates to TK-10 renal.
Experiment [13] concerns HCT-15 colon.
The test system of experiment [14] is XF 498 CNS.

In the case of `NC(CCC(=O)NC(CSC(=O)N(O)c1ccc(Br)cc1)C(=O)NCC(=O)O)C(=O)O` (stereo not given), the TGI in experiment [1], in experiment [2], in [3], in experiment [4], in experiment [5] and in experiment [6] was above 100 µM each time. Also, the TGI in experiment [7], in experiment [8], in [9], in [10], in experiment [11] and in experiment [12] was above 100 µM throughout. This compound yielded a TGI in [13] above 100 µM.

On to `COC(=O)C12C3C4C5(C(=O)OC)C(C1C35C(=O)N(C(C)C)C(C)C)C42C(=O)N(C(C)C)C(C)C` (stereo not given), for which the TGI was above 50 µM in experiment [1]; above 50 µM in experiment [2]; above 50 µM in [3]; above 50 µM in [4]; above 50 µM in experiment [5]; above 38.4 µM in [6]. The TGI in experiment [7], in [8], in [9], in experiment [10], in [11] and in experiment [12] was above 50 µM in each case. For the same compound, the TGI in [13] was above 33.7 µM.

`Cc1ccc2c(c1CCCC(C)(C)O)C(=O)C(=O)C(C(C)C)=C2O`: the TGI in experiment [1], in [2], in experiment [3], in experiment [4], in [5] and in experiment [6] was above 100 µM in each case. Moreover, the TGI in experiment [7], in experiment [8], in experiment [9], in [10], in [12] and in [13] was above 100 µM each time.

Turning to `CC(=O)OCC1OC(Nc2ncc(-c3ccc(C)cc3)s2)C(OC(C)=O)C(OC(C)=O)C1OC(C)=O` (stereo not given), the TGI in experiment [1] is above 100 µM; in [2], above 100 µM; in experiment [4], above 100 µM; in experiment [6], above 100 µM; in experiment [7] it was above 31.6 µM; in [8], above 100 µM. The TGI in experiment [10], in experiment [11] and in [13] was above 100 µM throughout.

As to `N#CC(NNC(=O)Cc1ccccc1)c1ccccc1O` (stereo not given), the TGI in experiment [1] is above 92.6 µM; in experiment [4] it was 74.9 µM; in experiment [5], 43.8 µM; in experiment [6], above 100 µM; in experiment [7], 27 µM; in experiment [8], above 100 µM. The TGI in [9], in experiment [10], in experiment [11], in [12] and in experiment [13] was above 100 µM in each case.

On to `Cc1cn(C2CC(N(O)Cc3ccccc3)C(CO)O2)c(=O)[nH]c1=O` (stereo not given), for which the TGI in experiment [1], in [14], in [2], in [3], in [5] and in experiment [7] was above 100 µM each time. Besides, the TGI in experiment [8], in experiment [9], in experiment [10], in [11], in [12] and in [13] was above 100 µM in each case.

For `N#C/C(=C\c1ccc(O)c(O)c1)C(N)=O`, the TGI in experiment [1], in experiment [2], in experiment [3], in [5], in experiment [6] and in experiment [7] was above 100 µM in each case. For the same compound, the TGI in [8], in experiment [9], in experiment [10], in experiment [11], in experiment [12] and in experiment [13] was above 100 µM each time.

Consider `Cc1ccc(C2CC(c3ccco3)=NN2c2ccccc2)o1` (stereo not given), for which the TGI in experiment [1], in experiment [14], in experiment [2], in experiment [3], in [5] and in [7] was above 100 µM each time. For the same compound, the TGI in experiment [8], in experiment [9], in experiment [10], in experiment [11], in experiment [12] and in experiment [13] was above 100 µM in each case.

Turning to `CCN1c2nc3ccccc3nc2N(CC)c2nc3ccccc3nc21`, the TGI in experiment [1], in [5], in experiment [8], in experiment [12] and in experiment [13] was above 100 µM each time.

As to `COc1ccc2c(c1C)C(=O)C(O)(CC=C(C)C)O2` (stereo not given), the TGI in experiment [1], in experiment [5], in experiment [8], in experiment [12] and in experiment [13] was above 100 µM throughout.

Take `COC1=C(Br)[C@H](O)[C@@]2(C=C1Br)CC(C(=O)NCCCCCN=C(N)N)=NO2`: the TGI in experiment [1], in experiment [5], in experiment [8], in experiment [12] and in [13] was above 10 µM throughout.

Take `C=CCn1c(=O)n(CC=C)c(=O)n(CC=C)c1=O`: the TGI in experiment [2], in experiment [3], in experiment [4], in [5], in experiment [6] and in experiment [7] was above 100 µM throughout. For the same compound, the TGI in experiment [8], in [9], in experiment [10], in [11], in experiment [12] and in experiment [13] was above 100 µM each time.

As to `CCOC(=O)c1nc2c(Cl)c3ncccc3cc2[nH]c1=O`, the TGI in experiment [1] was above 100 µM; in experiment [5] it was above 100 µM; in experiment [8], above 100 µM; in experiment [12], above 100 µM; in experiment [13] it was 56.5 µM.

Consider `CC1(C)c2ccccc2C(=O)C12CCC(=O)CC2`, for which the TGI in experiment [1], in experiment [5], in [8], in experiment [12] and in experiment [13] was above 100 µM throughout.

On to `COc1cccc(OC)c1/C=C1\OC(=O)c2cccc(OC)c21`, for which the TGI in experiment [1], in experiment [5], in [8], in [12] and in [13] was above 100 µM each time.

With `CCN1CCN(c2ccc(Nc3ccnc4ccc5nn(C)nc5c34)cc2)CC1`, the TGI came to 16.6 µM in experiment [1]; 26.9 µM in experiment [14]; 22.6 µM in experiment [2]; 27.4 µM in [3]; 28 µM in experiment [5]; 28.3 µM in experiment [6]. Also, the TGI was 29.8 µM in experiment [7]; above 100 µM in experiment [8]; 23.8 µM in [9]; 33.8 µM in experiment [11]; 39.4 µM in experiment [12]; 27.6 µM in experiment [13].

With `CCN(CC)c1ccc2cc(-c3nnc(-c4ccccc4)o3)c(=O)oc2c1`, the TGI in experiment [1] was above 100 µM; in [5], above 100 µM; in [8] it was above 100 µM; in experiment [12] it was above 62.6 µM; in experiment [13], above 100 µM.

`COc1c(C)c2c(c(C)c1Cl)Oc1c(C=O)c(O)c(Cl)c(C)c1C(=O)O2`: the TGI in experiment [1] was above 100 µM; in experiment [14], 22.7 µM; in [2], 79.1 µM; in [3], 82.9 µM; in experiment [5], 69.7 µM; in experiment [6], above 100 µM. In addition, the TGI was above 100 µM in experiment [7]; 97 µM in [8]; 82.9 µM in [9]; 70.5 µM in [10]; 54.7 µM in experiment [11]; above 100 µM in [12].

For `CC1=NC(=Cc2ccc(O)cc2)C(=O)N1n1c(-c2ccccc2)nc2ccccc2c1=O`, the TGI in experiment [1], in experiment [5], in experiment [8], in [12] and in experiment [13] was above 100 µM in each case.

As for `N#CSc1nc[nH]c1C(N)=O`, the TGI in experiment [1], in [5], in [8], in experiment [12] and in experiment [13] was above 100 µM in each case.

Regarding `C#CCn1ncc2c(SCc3ccccc3)ncnc21`, the TGI in [1], in experiment [5], in experiment [8], in experiment [12] and in experiment [13] was above 100 µM in each case.

As to `c1cc(-c2ncc(-c3ccc4c(c3)CCCO4)o2)ccn1`, the TGI in experiment [1] is 32 µM; in experiment [5], above 100 µM; in experiment [8], 7.05 µM; in experiment [12], 89.8 µM; in experiment [13], 69.7 µM.

As to `Cc1cn(C2CC(ON3C(=O)c4ccccc4C3=O)C(CO)O2)c(=O)[nH]c1=O` (stereo not given), the TGI in [1], in experiment [5], in [8], in experiment [12] and in [13] was above 10 µM throughout.
